Source: ChEMBL document CHEMBL1201862, “PubChem BioAssay data set” (2004)
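Following 48 hours of exposure in 96-well plates, responses at five concentrations were used to interpolate endpoints linearly. GI50 is the concentration that inhibits growth by half.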 Activity calls are given as the source filed them. Cut-off read from the data, not from the text of the source: active = GI50 up to about 1.1 µM and inactive = higher. Non-standard residues stand in square brackets, D forms with d. Residues, ends and D or L forms follow the SMILES beside them.

How the values were obtained:
Test in all cases: NCI anticancer screen, dose series, 48 h
BT-549 = system: BT-549
CAKI-1 = system: CAKI-1
COLO 205 = system: COLO 205
HCT-15 = system: HCT-15
Hs-578T = system: Hs-578T
K562 = system: K562
LOX IMVI = system: LOX IMVI
MCF7 = system: MCF7
NCI-H226 = system: NCI-H226
OVCAR-3 = system: OVCAR-3
OVCAR-8 = system: OVCAR-8
PC-3 = system: PC-3
RPMI-8226 = system: RPMI-8226
SF-268 = system: SF-268
SK-MEL-28 = system: SK-MEL-28
SK-MEL-2 = system: SK-MEL-2
SW-620 = system: SW-620
U-251 = system: U-251
HCC 2998 = system: HCC 2998
T47D = system: T47D

| Structure (SMILES) | GI50 (BT-549) | GI50 (CAKI-1) | GI50 (COLO 205) | GI50 (HCT-15) [µM] | GI50 (Hs-578T) | GI50 (K562) | GI50 (LOX IMVI) | GI50 (MCF7) | GI50 (NCI-H226) | GI50 (OVCAR-3) | GI50 (OVCAR-8) | GI50 (PC-3) | GI50 (RPMI-8226) | GI50 (SF-268) | GI50 (SK-MEL-28) | GI50 (SK-MEL-2) | GI50 (SW-620) | GI50 (U-251) | GI50 (HCC 2998) | GI50 (T47D) |
| --- | --- | --- | --- | --- | --- | --- | --- | --- | --- | --- | --- | --- | --- | --- | --- | --- | --- | --- | --- | --- |
| O=Cc1ccc2[nH]c(=O)oc2c1 | > 100 µM (inactive) | > 100 µM (inactive) | > 100 µM (inactive) | > 100 | > 100 µM (inactive) | > 100 µM (inactive) | > 100 µM (inactive) | > 100 µM (inactive) | > 100 µM (inactive) | > 100 µM (inactive) | > 100 µM (inactive) | > 100 µM (inactive) | > 100 µM (inactive) | > 100 µM (inactive) | > 100 µM (inactive) | > 100 µM (inactive) | > 100 µM (inactive) | 84.5 µM (inactive) | – | – |
| CC(C)OCC(O)COc1ccc2ccc(=O)oc2c1 (stereo not given) | – | > 100 µM (inactive) | > 100 µM (inactive) | > 100 | > 100 µM (inactive) | > 100 µM (inactive) | > 100 µM (inactive) | > 100 µM (inactive) | – | > 100 µM (inactive) | > 100 µM (inactive) | > 100 µM (inactive) | > 100 µM (inactive) | > 100 µM (inactive) | > 100 µM (inactive) | – | > 100 µM (inactive) | > 100 µM (inactive) | > 100 µM (inactive) | > 100 µM (inactive) |
| COc1ccc(C(=O)C(c2ccc(OC)cc2)C2C(=O)Oc3ccccc32)cc1 (stereo not given) | – | > 10 µM (inactive) | > 10 µM (inactive) | > 10 | – | > 10 µM (inactive) | > 10 µM (inactive) | – | > 10 µM (inactive) | > 10 µM (inactive) | > 10 µM (inactive) | – | > 10 µM (inactive) | > 10 µM (inactive) | > 10 µM (inactive) | > 10 µM (inactive) | > 10 µM (inactive) | > 10 µM (inactive) | > 10 µM (inactive) | – |
| FC1(F)[Se]C2C3CCC(C3)C2C1(F)F (stereo not given) | – | > 100 µM (inactive) | > 100 µM (inactive) | > 100 | > 100 µM (inactive) | – | > 100 µM (inactive) | > 100 µM (inactive) | > 100 µM (inactive) | > 100 µM (inactive) | > 100 µM (inactive) | > 100 µM (inactive) | > 100 µM (inactive) | > 100 µM (inactive) | > 100 µM (inactive) | > 100 µM (inactive) | > 100 µM (inactive) | > 100 µM (inactive) | > 100 µM (inactive) | > 100 µM (inactive) |
| CC(C)(C)/N=c1/n(C(C)(C)C)oc(=O)n1-c1ccccc1 | – | > 50 µM (inactive) | > 50 µM (inactive) | > 50 | > 50 µM (inactive) | > 50 µM (inactive) | > 50 µM (inactive) | > 50 µM (inactive) | > 50 µM (inactive) | > 50 µM (inactive) | > 50 µM (inactive) | > 50 µM (inactive) | > 50 µM (inactive) | > 50 µM (inactive) | > 50 µM (inactive) | > 50 µM (inactive) | > 50 µM (inactive) | > 50 µM (inactive) | – | – |
| COc1ccc(NC(=O)CC(=O)N2N=C(C)C(/N=N/c3ccc(C(=O)O)cc3)C2=O)cc1 (stereo not given) | – | > 100 µM (inactive) | > 100 µM (inactive) | > 100 | > 100 µM (inactive) | > 100 µM (inactive) | 94 µM (inactive) | > 100 µM (inactive) | – | > 100 µM (inactive) | > 100 µM (inactive) | > 100 µM (inactive) | > 10 µM (inactive) | > 100 µM (inactive) | > 100 µM (inactive) | > 100 µM (inactive) | > 100 µM (inactive) | > 100 µM (inactive) | > 100 µM (inactive) | > 100 µM (inactive) |
| O=C(CN1CCCCC1)c1ccc2c(c1)Sc1ccccc1O2 | – | 18.3 µM (inactive) | 7.73 µM (inactive) | 11 | 5.18 µM (inactive) | 57 µM (inactive) | 10.2 µM (inactive) | 15.9 µM (inactive) | 14.2 µM (inactive) | 15.3 µM (inactive) | 16.9 µM (inactive) | 11.6 µM (inactive) | 30.8 µM (inactive) | 17.5 µM (inactive) | 18.7 µM (inactive) | 18.7 µM (inactive) | 17.8 µM (inactive) | 15.5 µM (inactive) | 15.5 µM (inactive) | 22.8 µM (inactive) |
| O=C1c2ccccc2C2(O)Oc3cccc(O)c3C12O (stereo not given) | – | > 100 µM (inactive) | > 100 µM (inactive) | > 100 | – | > 100 µM (inactive) | > 100 µM (inactive) | – | > 100 µM (inactive) | > 100 µM (inactive) | > 100 µM (inactive) | – | > 100 µM (inactive) | > 100 µM (inactive) | > 100 µM (inactive) | > 100 µM (inactive) | > 100 µM (inactive) | > 100 µM (inactive) | > 100 µM (inactive) | – |
| CC1(C)CCC[C@]2(C)[C@@H]1CC[C@@]13O[C@@H]1C1=C(CO)C(=O)OC1=C[C@@H]23 | 22 µM (inactive) | 18.8 µM (inactive) | 16.5 µM (inactive) | 14.4 | – | 21.4 µM (inactive) | – | 26.4 µM (inactive) | 15.7 µM (inactive) | – | – | 14.9 µM (inactive) | 21.1 µM (inactive) | 15.2 µM (inactive) | 16.6 µM (inactive) | 22.8 µM (inactive) | 18.9 µM (inactive) | 24.4 µM (inactive) | 18.9 µM (inactive) | – |
| Cc1ccccc1Nc1nc2c(s1)C(=O)c1ccccc1C2=O | 2.46 µM (inactive) | 16.5 µM (inactive) | 16.8 µM (inactive) | 3.78 | – | 3.07 µM (inactive) | 2.26 µM (inactive) | 2 µM (inactive) | 14.4 µM (inactive) | 2.24 µM (inactive) | 2.86 µM (inactive) | 2.26 µM (inactive) | 2.93 µM (inactive) | 4.33 µM (inactive) | 9.86 µM (inactive) | 16.7 µM (inactive) | 2.49 µM (inactive) | 4.09 µM (inactive) | 17.7 µM (inactive) | 4.53 µM (inactive) |
| CC(C)COP(C)(=O)C(N)(C(F)(F)F)C(F)(F)F (stereo not given) | – | > 100 µM (inactive) | > 100 µM (inactive) | > 100 | > 100 µM (inactive) | > 100 µM (inactive) | > 100 µM (inactive) | > 100 µM (inactive) | > 100 µM (inactive) | > 100 µM (inactive) | > 100 µM (inactive) | > 100 µM (inactive) | > 100 µM (inactive) | > 100 µM (inactive) | > 100 µM (inactive) | > 100 µM (inactive) | > 100 µM (inactive) | > 100 µM (inactive) | > 100 µM (inactive) | > 100 µM (inactive) |
| O=C1NCC2(CCNCC2)N1c1ccccc1 | – | > 100 µM (inactive) | > 100 µM (inactive) | > 100 | > 100 µM (inactive) | > 100 µM (inactive) | > 100 µM (inactive) | > 100 µM (inactive) | > 100 µM (inactive) | > 100 µM (inactive) | > 100 µM (inactive) | > 100 µM (inactive) | > 100 µM (inactive) | > 100 µM (inactive) | > 100 µM (inactive) | > 100 µM (inactive) | > 100 µM (inactive) | > 100 µM (inactive) | > 100 µM (inactive) | > 100 µM (inactive) |
| CC1=C(N2CC2)C(=O)c2ccccc2C1=O | – | 0.556 µM (active) | 0.762 µM (active) | 1.05 | 1.36 µM (inactive) | 0.783 µM (active) | 1.22 µM (inactive) | 0.249 µM (active) | 2.06 µM (inactive) | 1.12 µM (inactive) | 0.506 µM (active) | 0.897 µM (active) | – | 0.359 µM (active) | 1.85 µM (inactive) | 1.54 µM (inactive) | 0.185 µM (active) | 0.895 µM (active) | – | 13.1 µM (inactive) |
| COC(=O)C1=C(O)C(O)=C(C(=O)OC)C1 | – | > 100 µM (inactive) | > 100 µM (inactive) | > 100 | – | > 100 µM (inactive) | > 100 µM (inactive) | – | > 100 µM (inactive) | > 100 µM (inactive) | > 100 µM (inactive) | – | > 100 µM (inactive) | > 100 µM (inactive) | > 100 µM (inactive) | > 100 µM (inactive) | > 100 µM (inactive) | > 100 µM (inactive) | > 100 µM (inactive) | – |
| CSCC[C@H](NC(=O)[C@@H](N)CC(N)=O)C(=O)N[C@@H](Cc1c[nH]c2ccccc12)C(=O)N[C@@H](CCC(N)=O)C(=O)N[C@@H](CCC(=O)O)C(=O)N[C@H](C(=O)NCC(=O)N[C@@H](CCCCN)C(=O)N[C@H](C)C(=O)O)C(C)C (H-NMWQEVGK[dA]-OH) | – | > 100 µM (inactive) | > 100 µM (inactive) | > 100 | > 100 µM (inactive) | > 100 µM (inactive) | > 100 µM (inactive) | > 100 µM (inactive) | > 100 µM (inactive) | > 100 µM (inactive) | > 100 µM (inactive) | > 100 µM (inactive) | > 100 µM (inactive) | > 100 µM (inactive) | > 100 µM (inactive) | – | > 100 µM (inactive) | > 100 µM (inactive) | > 100 µM (inactive) | > 100 µM (inactive) |
| CCOC(=O)N1CCC(=C2c3ccc(Cl)cc3CCc3cccnc32)CC1 [LORATADINE] | – | – | 9.14 µM (inactive) | 7.55 | 26.9 µM (inactive) | 6.12 µM (inactive) | 10.9 µM (inactive) | 7.4 µM (inactive) | 14.6 µM (inactive) | 7.78 µM (inactive) | 12.7 µM (inactive) | 10.4 µM (inactive) | 3.83 µM (inactive) | – | 5.57 µM (inactive) | 11.2 µM (inactive) | 11.8 µM (inactive) | – | 10 µM (inactive) | 13.3 µM (inactive) |
